The text below walks through data of ChEMBL document CHEMBL1201862, “PubChem BioAssay data set” (2004).

Assay [1] has as its target T1, Sentrin-specific protease 7 (Homo sapiens, UniProt Q9BQF6).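 Further: Luminescence-based dose-response confirmation of ultra-high-throughput screening hits, measuring inhibition of SENP7.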
T1 sequence (Q9BQF6 whole entry): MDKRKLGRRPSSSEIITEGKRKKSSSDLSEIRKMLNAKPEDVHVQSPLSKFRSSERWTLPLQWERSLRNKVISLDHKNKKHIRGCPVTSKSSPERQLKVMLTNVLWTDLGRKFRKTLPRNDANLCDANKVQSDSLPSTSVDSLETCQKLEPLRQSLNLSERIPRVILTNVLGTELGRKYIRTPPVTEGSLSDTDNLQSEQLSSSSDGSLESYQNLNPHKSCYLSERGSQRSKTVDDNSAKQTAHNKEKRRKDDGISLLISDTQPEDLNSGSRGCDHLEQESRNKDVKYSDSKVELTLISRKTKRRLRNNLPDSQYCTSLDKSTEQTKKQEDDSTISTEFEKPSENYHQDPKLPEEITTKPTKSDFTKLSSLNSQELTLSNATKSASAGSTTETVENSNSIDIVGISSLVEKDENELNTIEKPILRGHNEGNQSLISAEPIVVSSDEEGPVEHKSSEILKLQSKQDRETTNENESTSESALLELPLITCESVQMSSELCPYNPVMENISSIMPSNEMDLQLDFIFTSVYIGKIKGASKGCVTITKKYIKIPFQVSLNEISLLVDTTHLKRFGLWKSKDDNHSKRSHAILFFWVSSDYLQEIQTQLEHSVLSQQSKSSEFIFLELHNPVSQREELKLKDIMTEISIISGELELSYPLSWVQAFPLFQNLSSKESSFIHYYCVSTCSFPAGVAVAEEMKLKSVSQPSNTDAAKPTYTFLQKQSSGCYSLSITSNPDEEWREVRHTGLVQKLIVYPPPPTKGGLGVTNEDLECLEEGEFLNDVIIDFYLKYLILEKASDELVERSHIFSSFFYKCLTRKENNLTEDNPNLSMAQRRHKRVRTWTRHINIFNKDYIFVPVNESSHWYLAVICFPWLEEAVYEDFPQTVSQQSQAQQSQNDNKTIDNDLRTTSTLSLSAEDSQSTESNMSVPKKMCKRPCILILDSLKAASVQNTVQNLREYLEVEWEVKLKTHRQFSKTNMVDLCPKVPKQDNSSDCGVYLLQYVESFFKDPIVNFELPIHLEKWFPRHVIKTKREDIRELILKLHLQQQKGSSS
The class given is functional.

In assay [2] the target is T2, Sentrin-specific protease 8 (Homo sapiens, UniProt Q96LD8).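 Further: luminescence read-out of SENP8 inhibition, dose-response confirmation following an ultra-high-throughput screen.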
T2 sequence (Q96LD8 whole entry): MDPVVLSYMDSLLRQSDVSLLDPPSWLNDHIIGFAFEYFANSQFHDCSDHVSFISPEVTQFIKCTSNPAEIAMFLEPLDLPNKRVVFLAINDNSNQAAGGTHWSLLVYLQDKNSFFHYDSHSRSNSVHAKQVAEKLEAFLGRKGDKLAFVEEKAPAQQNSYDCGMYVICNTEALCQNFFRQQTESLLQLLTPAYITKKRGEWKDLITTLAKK
It counts as functional.

In assay [3] the target is LIM domain kinase 1 (Homo sapiens, UniProt P53667). Description: Navigating the Kinome. Panel member name: LIMK1. The class given is functional.
The target of assay [4] is Dual specificity protein kinase CLK4 (Homo sapiens, UniProt Q9HAZ1). It counts as functional.
For assay [5], the target named is Inhibitor of nuclear factor kappa-B kinase subunit epsilon (Homo sapiens, UniProt Q14164). The assay is described as follows: Navigating the Kinome. Panel member name: IKBKE. The class given is functional.
The target of assay [6] is ORF 73 (Human herpesvirus 8, UniProt O40947). The assay is described as follows: KSHV LANA DNA-binding disruption – biochemical, fluorescence polarization, cherry-picked samples, dose response (AID 504725).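 Further: fluorescence polarization of a labeled DNA duplex reporting LANA DNA binding; potency is for inhibitors that block LANA binding to the DNA.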 Set-up: species or system Human gammaherpesvirus 8. (Polarisation of emitted light reports the rotation of a fluorescent probe.)
In assay [7] the test system is HEK293. Description: optical interference in Abeta FP readout, dose response, artefact control for IDE activator project, biochemical, fluorescence polarization (AID 588442). It counts as functional, cell-based. The note with it: Homo sapiens.
In assay [8] the target is T3, Caspase-3 (Homo sapiens, UniProt P42574).
T3 sequence (P42574 whole entry): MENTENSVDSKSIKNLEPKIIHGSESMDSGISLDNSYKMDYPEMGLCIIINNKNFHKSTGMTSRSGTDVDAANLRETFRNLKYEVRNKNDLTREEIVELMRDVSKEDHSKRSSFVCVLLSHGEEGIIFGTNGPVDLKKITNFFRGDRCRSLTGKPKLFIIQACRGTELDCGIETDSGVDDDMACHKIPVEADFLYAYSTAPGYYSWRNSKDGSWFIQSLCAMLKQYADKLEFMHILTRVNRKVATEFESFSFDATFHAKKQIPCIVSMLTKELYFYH
The assay is described as follows: human caspase-3 protease activity blockade – biochemical, fluorescence, cherry-picked samples, selectivity assay for caspase-6 allosteric inhibitor project, dose response (AID 743291).

For assay [9], the target named is Ribosomal protein S6 kinase alpha-3 (Homo sapiens, UniProt P51812). The class given is functional.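 Further: measured within a kinome-wide profiling panel.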
Sequence of Ribosomal protein S6 kinase alpha-3 (P51812 whole entry): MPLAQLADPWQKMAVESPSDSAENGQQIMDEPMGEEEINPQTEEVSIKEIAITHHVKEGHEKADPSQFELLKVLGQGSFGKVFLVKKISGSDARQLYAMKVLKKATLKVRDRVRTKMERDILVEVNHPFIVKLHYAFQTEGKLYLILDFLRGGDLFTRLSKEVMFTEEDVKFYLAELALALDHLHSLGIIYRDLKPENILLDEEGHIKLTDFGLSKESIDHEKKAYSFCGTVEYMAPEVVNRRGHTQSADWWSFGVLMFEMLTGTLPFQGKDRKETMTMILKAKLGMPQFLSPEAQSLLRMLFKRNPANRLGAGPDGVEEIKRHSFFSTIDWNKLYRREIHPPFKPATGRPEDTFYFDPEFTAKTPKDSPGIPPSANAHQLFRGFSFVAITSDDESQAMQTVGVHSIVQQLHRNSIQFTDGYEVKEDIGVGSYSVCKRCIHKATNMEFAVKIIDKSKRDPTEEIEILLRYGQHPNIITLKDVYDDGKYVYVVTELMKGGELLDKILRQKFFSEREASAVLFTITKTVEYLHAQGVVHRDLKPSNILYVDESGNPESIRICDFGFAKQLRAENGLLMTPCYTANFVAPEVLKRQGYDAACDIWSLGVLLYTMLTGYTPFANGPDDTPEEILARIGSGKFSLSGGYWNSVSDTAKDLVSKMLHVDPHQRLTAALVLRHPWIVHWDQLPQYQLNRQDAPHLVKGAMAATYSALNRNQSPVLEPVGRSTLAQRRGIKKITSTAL
Assay [10] deals with Calcium/calmodulin-dependent protein kinase type II subunit gamma (Homo sapiens, UniProt Q13555). It counts as functional.
Sequence of Calcium/calmodulin-dependent protein kinase type II subunit gamma (Q13555 whole entry): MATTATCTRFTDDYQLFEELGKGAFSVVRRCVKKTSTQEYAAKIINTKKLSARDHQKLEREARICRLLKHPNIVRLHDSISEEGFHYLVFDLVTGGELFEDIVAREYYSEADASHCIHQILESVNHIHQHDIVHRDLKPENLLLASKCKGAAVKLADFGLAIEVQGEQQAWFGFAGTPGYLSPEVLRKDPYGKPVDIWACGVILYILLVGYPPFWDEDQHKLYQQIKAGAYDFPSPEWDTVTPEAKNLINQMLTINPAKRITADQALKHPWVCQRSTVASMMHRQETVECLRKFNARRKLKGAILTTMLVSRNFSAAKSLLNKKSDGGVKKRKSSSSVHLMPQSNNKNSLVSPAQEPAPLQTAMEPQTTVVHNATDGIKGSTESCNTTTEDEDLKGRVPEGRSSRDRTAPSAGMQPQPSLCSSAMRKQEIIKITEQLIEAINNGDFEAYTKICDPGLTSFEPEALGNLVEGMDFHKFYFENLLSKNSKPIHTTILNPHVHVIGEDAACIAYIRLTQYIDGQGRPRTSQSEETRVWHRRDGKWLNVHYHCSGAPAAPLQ
Assay [11] concerns the target Cyclin-dependent kinase 2 (Homo sapiens, UniProt P24941). The class given is functional.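 Further: CDK2 measured as one member of a broad kinome profiling panel.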
Assay [12] has as its target Cell division cycle 7-related protein kinase (Homo sapiens, UniProt O00311). The class given is functional.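 Further: value obtained from a kinome-wide kinase panel.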
Assay [13] deals with Proto-oncogene tyrosine-protein kinase ROS (Homo sapiens, UniProt P08922). It counts as functional.
Sequence of Proto-oncogene tyrosine-protein kinase ROS (P08922 whole entry): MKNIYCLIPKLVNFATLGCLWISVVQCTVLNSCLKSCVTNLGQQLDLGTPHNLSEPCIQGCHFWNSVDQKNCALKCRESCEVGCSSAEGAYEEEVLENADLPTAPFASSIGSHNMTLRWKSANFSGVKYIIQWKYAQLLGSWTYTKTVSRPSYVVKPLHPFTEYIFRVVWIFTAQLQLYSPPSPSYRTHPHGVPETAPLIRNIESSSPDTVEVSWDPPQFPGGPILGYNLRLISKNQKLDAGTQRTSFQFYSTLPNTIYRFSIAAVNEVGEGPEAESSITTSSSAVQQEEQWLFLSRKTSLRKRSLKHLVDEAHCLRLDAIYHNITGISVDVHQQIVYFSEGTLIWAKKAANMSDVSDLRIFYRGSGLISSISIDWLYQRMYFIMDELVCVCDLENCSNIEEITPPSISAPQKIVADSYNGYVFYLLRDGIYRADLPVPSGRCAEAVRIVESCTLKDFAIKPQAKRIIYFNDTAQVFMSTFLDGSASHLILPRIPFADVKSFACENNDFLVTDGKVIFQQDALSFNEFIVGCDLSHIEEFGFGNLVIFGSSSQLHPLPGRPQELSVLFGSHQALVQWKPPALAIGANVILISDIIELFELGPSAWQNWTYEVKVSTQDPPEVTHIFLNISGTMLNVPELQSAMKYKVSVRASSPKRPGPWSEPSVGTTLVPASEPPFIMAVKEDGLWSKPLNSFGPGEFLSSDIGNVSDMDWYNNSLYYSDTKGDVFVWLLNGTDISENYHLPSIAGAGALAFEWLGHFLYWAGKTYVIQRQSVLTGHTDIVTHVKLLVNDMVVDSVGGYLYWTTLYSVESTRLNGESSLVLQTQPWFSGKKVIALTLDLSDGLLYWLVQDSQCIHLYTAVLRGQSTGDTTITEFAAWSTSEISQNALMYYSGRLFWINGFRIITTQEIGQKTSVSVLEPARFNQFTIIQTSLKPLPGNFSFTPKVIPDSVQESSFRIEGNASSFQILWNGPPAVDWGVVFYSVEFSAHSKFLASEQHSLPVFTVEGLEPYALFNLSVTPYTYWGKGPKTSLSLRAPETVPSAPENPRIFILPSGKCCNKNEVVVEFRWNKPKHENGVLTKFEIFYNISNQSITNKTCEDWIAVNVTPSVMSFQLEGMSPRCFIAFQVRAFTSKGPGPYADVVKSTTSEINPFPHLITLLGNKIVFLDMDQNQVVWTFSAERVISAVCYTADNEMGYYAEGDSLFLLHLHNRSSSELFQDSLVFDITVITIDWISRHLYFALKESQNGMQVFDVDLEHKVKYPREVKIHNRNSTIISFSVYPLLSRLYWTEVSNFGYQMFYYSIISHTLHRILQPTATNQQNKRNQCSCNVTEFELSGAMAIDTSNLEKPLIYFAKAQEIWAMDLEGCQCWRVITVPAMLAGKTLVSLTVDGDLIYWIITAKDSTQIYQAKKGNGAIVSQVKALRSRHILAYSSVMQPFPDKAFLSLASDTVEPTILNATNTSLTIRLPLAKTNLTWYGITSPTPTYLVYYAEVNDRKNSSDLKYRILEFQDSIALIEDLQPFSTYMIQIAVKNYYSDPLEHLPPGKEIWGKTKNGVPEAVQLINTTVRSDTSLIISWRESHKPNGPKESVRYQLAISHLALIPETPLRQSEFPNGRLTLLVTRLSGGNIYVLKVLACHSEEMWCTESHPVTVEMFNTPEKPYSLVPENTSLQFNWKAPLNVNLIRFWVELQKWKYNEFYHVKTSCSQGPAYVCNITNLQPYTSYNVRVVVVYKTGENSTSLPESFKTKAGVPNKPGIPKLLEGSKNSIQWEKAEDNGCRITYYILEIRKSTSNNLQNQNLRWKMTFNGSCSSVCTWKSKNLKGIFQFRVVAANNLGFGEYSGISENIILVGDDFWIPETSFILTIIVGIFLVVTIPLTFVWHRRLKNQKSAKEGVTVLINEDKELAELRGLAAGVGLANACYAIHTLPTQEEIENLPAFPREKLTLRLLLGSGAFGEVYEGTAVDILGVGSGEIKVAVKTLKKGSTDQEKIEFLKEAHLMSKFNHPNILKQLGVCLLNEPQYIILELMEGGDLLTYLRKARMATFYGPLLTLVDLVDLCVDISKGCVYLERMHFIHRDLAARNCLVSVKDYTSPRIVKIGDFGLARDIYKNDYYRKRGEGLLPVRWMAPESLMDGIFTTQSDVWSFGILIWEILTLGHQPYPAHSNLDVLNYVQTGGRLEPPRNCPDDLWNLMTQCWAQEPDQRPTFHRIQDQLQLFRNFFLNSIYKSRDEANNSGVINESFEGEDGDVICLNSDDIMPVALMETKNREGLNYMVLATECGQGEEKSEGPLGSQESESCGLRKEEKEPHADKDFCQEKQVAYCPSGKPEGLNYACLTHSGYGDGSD
The target of assay [14] is MAP/microtubule affinity-regulating kinase 3 (Homo sapiens, UniProt P27448). The class given is functional.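 Further: MARK3 affinity measured as one member of a kinome panel.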
Assay [15] addresses Interleukin-1 receptor-associated kinase 1 (Homo sapiens, UniProt P51617). The class given is functional.
Assay [16] addresses Vascular endothelial growth factor receptor 3 (Homo sapiens, UniProt P35916). It counts as functional.
Assay [17] deals with Calcium/calmodulin-dependent protein kinase type 1 (Homo sapiens, UniProt Q14012). It counts as functional.
For assay [18], the target named is Serine/threonine-protein kinase pim-2 (Homo sapiens, UniProt Q9P1W9). It counts as functional.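 Further: value comes from a broad kinase panel profiling study in which PIM2 was one of the panel members.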
Assay [19] has as its target Serine/threonine-protein kinase Nek2 (Homo sapiens, UniProt P51955). It counts as functional.
The target of assay [20] is Mitogen-activated protein kinase 12 (Homo sapiens, UniProt P53778). The class given is functional.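 Further: measured as one member of a kinome-wide kinase profiling panel.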
Assay [21] deals with Serine/threonine-protein kinase 3 (Homo sapiens, UniProt Q13188). It counts as functional.
Sequence of Serine/threonine-protein kinase 3 (Q13188 whole entry): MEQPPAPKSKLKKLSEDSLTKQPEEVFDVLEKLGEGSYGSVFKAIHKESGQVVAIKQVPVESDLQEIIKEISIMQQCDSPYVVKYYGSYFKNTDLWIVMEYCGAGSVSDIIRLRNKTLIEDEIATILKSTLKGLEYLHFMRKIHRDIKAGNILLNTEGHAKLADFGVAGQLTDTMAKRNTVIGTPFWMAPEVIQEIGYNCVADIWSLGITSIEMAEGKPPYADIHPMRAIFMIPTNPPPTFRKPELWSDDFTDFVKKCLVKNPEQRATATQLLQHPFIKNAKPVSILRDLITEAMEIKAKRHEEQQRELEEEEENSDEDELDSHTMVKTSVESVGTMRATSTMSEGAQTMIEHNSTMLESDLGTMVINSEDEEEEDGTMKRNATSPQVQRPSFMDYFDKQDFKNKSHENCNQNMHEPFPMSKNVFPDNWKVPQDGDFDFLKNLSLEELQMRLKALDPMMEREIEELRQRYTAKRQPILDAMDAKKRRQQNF

Calls of active or inactive are those of the source. Bounds are passed on as bounds.

Sequence of Interleukin-1 receptor-associated kinase 1 (P51617 whole entry): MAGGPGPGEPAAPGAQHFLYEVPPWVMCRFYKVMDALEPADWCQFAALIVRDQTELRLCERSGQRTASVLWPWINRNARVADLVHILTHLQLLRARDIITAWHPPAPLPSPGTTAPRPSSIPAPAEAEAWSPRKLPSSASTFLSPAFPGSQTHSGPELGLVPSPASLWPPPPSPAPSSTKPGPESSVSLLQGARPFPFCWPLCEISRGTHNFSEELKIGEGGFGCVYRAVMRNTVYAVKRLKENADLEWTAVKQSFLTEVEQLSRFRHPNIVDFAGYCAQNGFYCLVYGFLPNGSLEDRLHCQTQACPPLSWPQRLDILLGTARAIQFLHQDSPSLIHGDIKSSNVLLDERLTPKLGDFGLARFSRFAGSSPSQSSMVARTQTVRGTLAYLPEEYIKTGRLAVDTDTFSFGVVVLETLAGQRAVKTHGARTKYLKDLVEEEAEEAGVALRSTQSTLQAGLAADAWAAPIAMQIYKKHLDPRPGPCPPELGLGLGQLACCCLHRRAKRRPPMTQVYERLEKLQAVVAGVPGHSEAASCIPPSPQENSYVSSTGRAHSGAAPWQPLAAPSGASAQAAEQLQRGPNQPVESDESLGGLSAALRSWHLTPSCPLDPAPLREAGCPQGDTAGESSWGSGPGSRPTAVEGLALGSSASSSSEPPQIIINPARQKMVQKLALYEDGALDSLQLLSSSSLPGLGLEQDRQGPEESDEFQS

A word on the IC50: it is the midpoint of a concentration-inhibition curve. Take `O=C(COC(=O)c1ccc([N+](=O)[O-])s1)Nc1ccc(F)cc1`: the IC50 is 6290 nM (active) in [1] and 4050 nM (active) in assay [2].
Usually Ki stands for a measure of affinity in units of concentration, obtained from inhibition or displacement. `COc1cccc(CNC(=O)c2cnc(-c3ccncc3)nc2)c1`: the Ki was > 3160 nM (inactive) in assay [3], > 2510 nM (inactive) in [4] and > 3160 nM (inactive) in assay [5].
Broadly, the AC50 is the concentration giving half of the maximal activity seen. A word on the EC50: it is the concentration giving half of the maximal effect. With `CCN(CC)CCCC(C)n1c2nc(=O)[nH]c(=O)c-2nc2cc(Cl)ccc21` (stereo not drawn), the AC50 was 370 nM (active) in assay [6] and 561 nM (active) in [8]. In addition, in assay [7], the EC50 was > 54700 nM (inactive).
In general, pKi refers to the Ki on a negative log10 scale, so that one unit is a factor of ten. `OC1CCC(Nc2nc(Cl)cc(-c3c[nH]c4ncccc34)n2)CC1` (stereo not drawn): the Ki was 100 nM (active) in [9]; 31.6 nM (active) in [10]; 12.6 nM (active) in assay [11]; 0.158 nM (active) in assay [12]; 158 nM (active) in assay [13]; 50.1 nM (active) in assay [14]. Also, the Ki in assay [15] was 79.4 nM (active); in assay [16], 200 nM (active); in [17] it was > 794 nM (inactive); in assay [18] it was 398 nM (active); in [19] it was 6310 nM (active); in assay [20], 158 nM (active). Also, the inhibition constant Ki in assay [21] is 50.1 nM (active). The pKi worked out at 7 in assay [9]; 7.5 in [10]; 7.9 in assay [11]; 9.8 in [12]; 6.8 in [13]; 7.3 in [14]. Also, the pKi is listed as 7.1 in assay [15]; 6.7 in assay [16]; 6.4 in [18]; 5.2 in assay [19]; 6.8 in assay [20]; 7.3 in assay [21].
